# In article PMC7156458, “Synthetic biology based construction of biological activity-related library of fungal decalin-containing diterpenoid pyrones” (Nature Communications, 2020):
# Read-outs that look alike come from different tables or passages of the source.
# Tests used:
# MCF-7 cells = assay: cell cytotoxic effects against MCF-7 cells (72 h), A490; assay type: cell-based, human; conditions: MCF-7, 72 h
# [1] = cytotoxicity in Drosophila DL1 cells; assay type: cell-based; conditions: Drosophila, DL1 cells (embryonic macrophage-derived), DL1 cells
# Method: (§1) We screened the DDPs on the Drosophila assay system for cytotoxicity, inhibitory activity of innate immune signalling and insecticidal activity. The cytotoxicity of the DDPs was evaluated using two cell lines, embryonic macrophage-derived DL1 cells[58]–[60] and larval blood cell-derived l(2)mbn cells, and their IC50 values are listed in Supplementary Table 23.
# DL1 cells = assay: cytotoxicity in Drosophila DL1 cells; assay type: cell-based; conditions: DL1 cells; for IC50: Drosophila melanogaster, cytotoxicity
# Method: as §1
# [2] = cytotoxicity in Drosophila l(2)mbn cells; assay type: cell-based; conditions: Drosophila, l(2)mbn cells (larval blood cell-derived)
# Method: as §1
# l(2)mbn cells = assay: cytotoxicity in Drosophila l(2)mbn cells; assay type: cell-based; conditions: for Luminescence Raw1: replicate 1; for Luminescence Raw2: replicate 2
# Method: as §1
# MAGI cells = assay: cytotoxicity in the anti-HIV assay (CC50); assay type: cell-based; conditions: single determinations
# SF-539 = assay: cells; parameters: species or system JFCR39 human cancer cell lines; JFCR39 panel growth inhibition, sulforhodamine B total protein after 48 h; conditions: Homo sapiens, SF-539, 48 h
# Method: (§2) Supplementary Note 24. Antiproliferative effects across the panel of JFCR39 cancer cell lines A panel of 39 human cancer cell lines, termed JFCR39, were previously described13-16. Cells were grown in RPMI-1640 (FUJIFILM Wako Pure Chemical Corporation, Tokyo, Japan) supplemented with 1 µg mL-1 kanamycin and 5% (v/v) fetal bovine serum (Nichirei Biosciences Inc, Tokyo, Japan) and incubated at 37°C in a humidified atmosphere supplemented with 5% CO2. Drug efficacy was assessed as changes in total cellular protein after 48 hours of drug treatment using a sulforhodamine B assay. Assays were done in duplicate and the GI50 was calculated as described previously13,16. The antitumor profile across the JFCR39 panel, or fingerprints were then compared to reference database containing ~2000 compounds by COMPARE algorithm16,17. Initially, we evaluated new DDP analogues for their antiproliferative activities across the panel of 39 human cancer cell lines, JFCR39[50],[51].
# SK-OV-3 = assay: cells; parameters: species or system JFCR39 human cancer cell lines; JFCR39 panel growth inhibition, sulforhodamine B total protein after 48 h; conditions: Homo sapiens, SK-OV-3, 48 h
# Method: as §2
# [3] = replicate 1, relative to DMSO 1%, read-out: % viability, viability 1
# [4] = replicate 2, relative to DMSO 1%, read-out: % viability, viability 2
smiles,measurement,setting,value
C=C1CCC2C(C)(CC(=O)C=C(C)C)C(O)CCC2(C)C1Cc1c(O)c(C)c(C)oc1=O (centres unmarked) [Compound 7],viability at 0.1 µM,"MCF-7 cells; Homo sapiens, MCF7, 72 h, 0.1 µM (DMSO 0.002%), read-out: A490 (control =1) ave",81%
same,viability at 1 µM,"MCF-7 cells; Homo sapiens, MCF7, 72 h, 1 µM (DMSO 0.02%), read-out: A490 (control =1) ave",92.4%
same,viability at 10 µM,"MCF-7 cells; Homo sapiens, MCF7, 72 h, 10 µM (DMSO 0.2%), read-out: A490 (control =1) ave",104%
same,A490 ave,"MCF-7 cells; 0.1 µM (DMSO 0.002%), control 1.064",0.862
same,A490 ave,"MCF-7 cells; 1 µM (DMSO 0.02%), control 1.104",1.021
same,A490 ave,"MCF-7 cells; 10 µM (DMSO 0.2%), control 1.049",1.095
same,viability at 0.04 µM,[1]; [3],129%
same,viability at 0.04 µM,[1]; [4],132%
same,viability at 0.2 µM,[1]; [3],133%
same,viability at 0.2 µM,[1]; [4],135%
same,viability at 1 µM,[1]; [3],120%
same,viability at 1 µM,[1]; [4],138%
same,viability at 4 µM,[1]; [3],83.5%
same,viability at 4 µM,[1]; [4],117%
same,viability at 10 µM,[1]; [3],36.5%
same,viability at 10 µM,[1]; [4],39.8%
same,viability at 20 µM,[1]; [3],13.4%
same,viability at 20 µM,[1]; [4],14.2%
same,Luminescence Raw1,"DL1 cells; 0.04 µM, replicate 1",2666434
same,Luminescence Raw2,"DL1 cells; 0.04 µM, replicate 2",2708996
same,Luminescence Raw1,"DL1 cells; 0.2 µM, replicate 1",2732080
same,Luminescence Raw2,"DL1 cells; 0.2 µM, replicate 2",2789792
same,Luminescence Raw1,"DL1 cells; 1 µM, replicate 1",2478515
same,Luminescence Raw2,"DL1 cells; 1 µM, replicate 2",2838847
same,Luminescence Raw1,"DL1 cells; 4 µM, replicate 1",1720040
same,Luminescence Raw2,"DL1 cells; 4 µM, replicate 2",2405658
same,Luminescence Raw1,"DL1 cells; 10 µM, replicate 1",751779
same,Luminescence Raw2,"DL1 cells; 10 µM, replicate 2",819211
same,Luminescence Raw1,"DL1 cells; 20 µM, replicate 1",275091
same,Luminescence Raw2,"DL1 cells; 20 µM, replicate 2",293480
same,IC50,"DL1 cells; average of two replicates, read-out: IC50 Average",8.75 µM
same,IC50,"DL1 cells; average±SEM, read-out: IC50",8.75 ± 0.64 µM
same,IC50,"DL1 cells; replicate 1, read-out: IC50 (1)",8.12 µM
same,IC50,"DL1 cells; replicate 2, read-out: IC50 (2)",9.39 µM
same,viability at 0.04 µM,[2]; [3],135%
same,viability at 0.04 µM,[2]; [4],130%
same,viability at 0.2 µM,[2]; [3],129%
same,viability at 0.2 µM,[2]; [4],135%
same,viability at 1 µM,[2]; [3],139%
same,viability at 1 µM,[2]; [4],132%
same,viability at 4 µM,[2]; [3],129%
same,viability at 4 µM,[2]; [4],131%
same,viability at 10 µM,[2]; [3],121%
same,viability at 10 µM,[2]; [4],115%
same,viability at 20 µM,[2]; [3],40.7%
same,viability at 20 µM,[2]; [4],39.5%
same,Luminescence Raw1,l(2)mbn cells; 0.04 µM,3452362
same,Luminescence Raw2,l(2)mbn cells; 0.04 µM,3328631
same,Luminescence Raw1,l(2)mbn cells; 0.2 µM,3304462
same,Luminescence Raw2,l(2)mbn cells; 0.2 µM,3461380
same,Luminescence Raw1,l(2)mbn cells; 1 µM,3578980
same,Luminescence Raw2,l(2)mbn cells; 1 µM,3388873
same,Luminescence Raw1,l(2)mbn cells; 4 µM,3312398
same,Luminescence Raw2,l(2)mbn cells; 4 µM,3370476
same,Luminescence Raw1,l(2)mbn cells; 10 µM,3097048
same,Luminescence Raw2,l(2)mbn cells; 10 µM,2956371
same,Luminescence Raw1,l(2)mbn cells; 20 µM,1044161
same,Luminescence Raw2,l(2)mbn cells; 20 µM,1013149
same,IC50,"l(2)mbn cells; Drosophila melanogaster, cytotoxicity, average±SEM, read-out: IC50",> 20 µM
same,Cytotoxicity,MAGI cells,>10 µM
same,GI50,SF-539,61.4 µM
same,GI50,SK-OV-3,60.8 µM
